Legend:
[1] = test system: paclitaxel-induced hyperalgesia; assay: Paclitaxel-induced hyperalgesia in the rat (paw-pressure test); type: in vivo; conditions: PCT-treated rats, 3 mg/kg i.v., mean ± S.E.M.
Procedure: In all methods, paw mechanical sensitivity was determined using either the paw pressure test or the incapacitance test. The paw pressure test utilizes a Randall & Selitto apparatus, exerting a force that increases at constant rate (32 g/s). The stimulus at which rats withdrawn the paw was evaluated before and at different times after treatment. Results represent the mean of mechanical thresholds expressed as grams. To avoid any possible damage to the animal paw the maximum applied force was fixed at 240 g. Peripheral neuropathy is induced by repeated administration of vincristine, paclitaxel or oxaliplatin to adult male Sprague-Dawley rats (150-200 g, supplier Harlan). The following protocols were used respectively: • Vincristine: the drug was injected by intravenous route at the dose of 150 μg/kg. The treatment was performed every 2 days, for 5 times, until a cumulative dose of 750 μg/kg was reached. Paw pressure test was performed 4 days after the last injection (Marchand F. et al. 2003, Brain Res. 980:117-120). • Paclitaxel: paclitaxel (PCT) neuropathy was induced by intraperitoneal administration of 0.5 mg/kg once a day, on days 1, 3, 5 and 8. Cumulative paclitaxel dose was 2 mg/kg. The pharmacological test was performed 14-18 days after the last paclitaxel injection (Polomano R. C. et al. 2001, Pain 94:293-304). • Oxaliplatin: 2.4 mg/kg were injected by intraperitoneal route for 5 consecutive days followed by 2 days suspension (one cicle). A total of 3 cycles was performed, reaching a cumulative dose of 36 mg/kg (Cavaletti G. 2001, Eur. J. Cancer 37:2457-2463). The test was performed 48 h after the last oxaliplatin injection. 2. Osteoarthritic Pain

[2] = test system: MIA-induced hyperalgesia; assay: MIA-induced hyperalgesia in the rat (incapacitance test), osteoarthritic pain; type: in vivo; conditions: MIA-treated rats, grams of the right paw, mean ± S.E.M.
Procedure: In all methods, paw mechanical sensitivity was determined using either the paw pressure test or the incapacitance test. […] Osteoarthritis was induced by a single administration of 2 mg (in a volume of 25 μl) of monosodium iodoacetate (MIA) into the left knee joint of anaesthetized rats (male adult Sprague Dawley rats, 150-200 g, supplier Harlan) (Fernihough J. 2004, Pain 112:83-93). This treatment induces the progressive degeneration of the joint and the development of hyperalgesia, mimicking at the histological and behavioral levels what observed in humans. Pharmacological test was performed 7 days after treatment.

[3] = test system: MIA-induced hyperalgesia; assay: MIA-induced hyperalgesia in the rat (paw-pressure test), osteoarthritic pain; type: in vivo; conditions: MIA-treated rats, mean ± S.E.M.
Procedure: In all methods, paw mechanical sensitivity was determined using either the paw pressure test or the incapacitance test. The paw pressure test utilizes a Randall & Selitto apparatus, exerting a force that increases at constant rate (32 g/s). The stimulus at which rats withdrawn the paw was evaluated before and at different times after treatment. Results represent the mean of mechanical thresholds expressed as grams. To avoid any possible damage to the animal paw the maximum applied force was fixed at 240 g. Osteoarthritis was induced by a single administration of 2 mg (in a volume of 25 μl) of monosodium iodoacetate (MIA) into the left knee joint of anaesthetized rats (male adult Sprague Dawley rats, 150-200 g, supplier Harlan) (Fernihough J. 2004, Pain 112:83-93). This treatment induces the progressive degeneration of the joint and the development of hyperalgesia, mimicking at the histological and behavioral levels what observed in humans. Pharmacological test was performed 7 days after treatment.

[4] = 3 mg/kg i.v., 15 min after treatment
[5] = 3 mg/kg i.v., 30 min after treatment
[6] = 3 mg/kg i.v., 45 min after treatment
[7] = before treatment (basal), group 3 mg/kg i.v.

melting point: 157 to 158 °C
SMILES: O=C1CC[C@@H]2CN(S(=O)(=O)c3ccccc3C(F)(F)F)CCN12 [Example 8, (R)-(+)-2-(2-(trifluoromethyl)phenylsulfonyl) hexahydropyrrolo [1,2-a]pyrazin-6(7H)-one]
Mechanical threshold (g), After Treatment 15 min ([1]; 15 min after treatment): 42.2 ± 3.0 g
Mechanical threshold (g), After Treatment 30 min ([1]; 30 min after treatment): 39.3 ± 3.2 g
Mechanical threshold (g), After Treatment 45 min ([1]; 45 min after treatment): 37.5 ± 3.2 g
Weight borne on right hind paw [2, 4]: 119.0 ± 7.5 g
Weight borne on right hind paw [2, 5]: 113.5 ± 6.6 g
Weight borne on right hind paw [2, 6]: 72.9 ± 6.3 g
Weight borne on right hind paw [2, 7]: 40.4 ± 8.2 g
Mechanical threshold (g), After Treatment 15 min [3, 4]: 59.4 ± 1.6 g
Mechanical threshold (g), After Treatment 30 min [3, 5]: 63.8 ± 2.6 g
Mechanical threshold (g), After Treatment 45 min [3, 6]: 50.2 ± 3.7 g
Mechanical threshold (g), Before Treatment basal [3, 7]: 22.6 ± 2.0 g
